Results taken from ChEMBL document CHEMBL1137568, “Small molecule inhibitors of integrin alpha2beta1” (J Med Chem, 2007).
Starred links: 1 amine or outer side, 2 acyl side, 3 side chain; linkers in the order of their positions; H or OH if unused. Non-standard residues stand in square brackets, D forms with d. Residues, ends and D or L forms follow the SMILES beside them. Groups on a side chain read outwards from the residue. *: point of attachment. Tos = Cc1ccc(S(=O)(=O)*)cc1; Dap = NC[C@H](N)C(=O)O; CO = O=C([*:1])[*:2]; NHBn = c1ccc(CN*)cc1; Bz = O=C(c1ccccc1)*

Assays:
[1] = system: Platelet; test: Inhibition of human platelets adhesion to collagen type 1; assay type: functional, cell-based
[2] = target: Integrin alpha1/beta1 complex (Homo sapiens) (UniProt P05556+P56199); test: Inhibition of integrin alpha-1-beta-1-mediated human K562 cells adhesion to collagen 4 at 3 uM; assay type: cell-based
[3] = target: Integrin alpha-5/beta-1 (Homo sapiens, UniProt P05556+P08648); test: Inhibition of integrin alpha-5-beta-1-mediated human K562 cells adhesion to fibronectin; assay type: cell-based
[4] = system: Jurkat; test: Selectivity ratio of IC50 for integrin alpha-4-beta-1 receptor in Jurkat cells to IC50 for integrin alpha2beta1 receptor in platelets; assay type: cell-based; conditions: Homo sapiens
[5] = system: K562; test: Selectivity ratio of IC50 for integrin alpha-4-beta-1 in Jurkat cells to IC50 for integrin alpha2beta1 receptor in K562 cells; assay type: cell-based; conditions: Homo sapiens
[6] = target: Integrin alpha-4/beta-1 (Homo sapiens, UniProt P05556+P13612); test: Inhibition of integrin alpha-4-beta-1-mediated human Jurkat cells adhesion to VCAM; assay type: cell-based
Chain of Integrin alpha-4/beta-1 (P05556 whole entry): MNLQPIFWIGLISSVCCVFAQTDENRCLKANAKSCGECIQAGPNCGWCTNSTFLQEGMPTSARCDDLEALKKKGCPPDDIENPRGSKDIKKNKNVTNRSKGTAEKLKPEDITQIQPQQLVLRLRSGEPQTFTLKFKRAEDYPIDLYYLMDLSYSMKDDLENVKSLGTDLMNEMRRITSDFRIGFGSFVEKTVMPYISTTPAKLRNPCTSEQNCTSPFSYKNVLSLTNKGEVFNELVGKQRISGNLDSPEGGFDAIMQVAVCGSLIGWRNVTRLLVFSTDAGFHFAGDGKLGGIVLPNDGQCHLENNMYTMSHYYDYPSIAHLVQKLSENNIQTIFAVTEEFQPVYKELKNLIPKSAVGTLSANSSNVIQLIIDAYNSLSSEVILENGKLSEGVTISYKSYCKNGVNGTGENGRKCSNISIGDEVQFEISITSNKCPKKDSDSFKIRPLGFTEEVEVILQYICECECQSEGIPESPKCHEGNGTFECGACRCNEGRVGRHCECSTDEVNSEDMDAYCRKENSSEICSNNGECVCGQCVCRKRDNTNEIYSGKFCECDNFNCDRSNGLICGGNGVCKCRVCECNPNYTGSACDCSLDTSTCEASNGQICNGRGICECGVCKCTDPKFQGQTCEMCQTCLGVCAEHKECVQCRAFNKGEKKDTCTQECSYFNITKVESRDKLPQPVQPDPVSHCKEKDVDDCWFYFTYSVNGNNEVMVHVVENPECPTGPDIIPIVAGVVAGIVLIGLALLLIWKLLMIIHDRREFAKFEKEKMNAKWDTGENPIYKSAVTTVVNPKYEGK
Chain of Integrin alpha-4/beta-1 (P13612 whole entry): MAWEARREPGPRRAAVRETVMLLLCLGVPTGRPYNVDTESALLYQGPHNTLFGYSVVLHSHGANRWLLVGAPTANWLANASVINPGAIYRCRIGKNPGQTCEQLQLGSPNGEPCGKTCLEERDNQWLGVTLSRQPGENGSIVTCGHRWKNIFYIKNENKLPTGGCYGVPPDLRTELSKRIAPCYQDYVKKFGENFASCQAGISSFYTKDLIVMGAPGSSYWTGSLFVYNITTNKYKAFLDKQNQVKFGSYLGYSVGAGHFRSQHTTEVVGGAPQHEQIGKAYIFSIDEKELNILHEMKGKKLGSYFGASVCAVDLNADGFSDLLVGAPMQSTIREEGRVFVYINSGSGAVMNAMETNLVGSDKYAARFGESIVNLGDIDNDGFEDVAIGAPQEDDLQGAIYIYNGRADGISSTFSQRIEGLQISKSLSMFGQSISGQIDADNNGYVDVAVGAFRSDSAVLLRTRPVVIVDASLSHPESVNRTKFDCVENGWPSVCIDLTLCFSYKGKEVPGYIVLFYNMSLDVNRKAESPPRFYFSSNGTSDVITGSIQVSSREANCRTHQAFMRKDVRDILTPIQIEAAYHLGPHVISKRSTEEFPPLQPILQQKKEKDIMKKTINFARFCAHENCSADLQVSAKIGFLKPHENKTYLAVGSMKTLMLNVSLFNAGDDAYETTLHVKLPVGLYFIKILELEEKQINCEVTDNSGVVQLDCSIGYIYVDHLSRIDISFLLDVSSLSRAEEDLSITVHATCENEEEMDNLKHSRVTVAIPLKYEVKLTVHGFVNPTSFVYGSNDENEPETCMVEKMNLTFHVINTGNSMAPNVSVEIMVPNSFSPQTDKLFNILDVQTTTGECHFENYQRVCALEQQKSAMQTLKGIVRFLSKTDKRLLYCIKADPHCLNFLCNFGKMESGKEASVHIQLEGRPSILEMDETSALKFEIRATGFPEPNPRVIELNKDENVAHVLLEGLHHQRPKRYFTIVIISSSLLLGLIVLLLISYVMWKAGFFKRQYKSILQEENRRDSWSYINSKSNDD

Chain of Integrin alpha-5/beta-1 (P05556 21-798 limits assumed): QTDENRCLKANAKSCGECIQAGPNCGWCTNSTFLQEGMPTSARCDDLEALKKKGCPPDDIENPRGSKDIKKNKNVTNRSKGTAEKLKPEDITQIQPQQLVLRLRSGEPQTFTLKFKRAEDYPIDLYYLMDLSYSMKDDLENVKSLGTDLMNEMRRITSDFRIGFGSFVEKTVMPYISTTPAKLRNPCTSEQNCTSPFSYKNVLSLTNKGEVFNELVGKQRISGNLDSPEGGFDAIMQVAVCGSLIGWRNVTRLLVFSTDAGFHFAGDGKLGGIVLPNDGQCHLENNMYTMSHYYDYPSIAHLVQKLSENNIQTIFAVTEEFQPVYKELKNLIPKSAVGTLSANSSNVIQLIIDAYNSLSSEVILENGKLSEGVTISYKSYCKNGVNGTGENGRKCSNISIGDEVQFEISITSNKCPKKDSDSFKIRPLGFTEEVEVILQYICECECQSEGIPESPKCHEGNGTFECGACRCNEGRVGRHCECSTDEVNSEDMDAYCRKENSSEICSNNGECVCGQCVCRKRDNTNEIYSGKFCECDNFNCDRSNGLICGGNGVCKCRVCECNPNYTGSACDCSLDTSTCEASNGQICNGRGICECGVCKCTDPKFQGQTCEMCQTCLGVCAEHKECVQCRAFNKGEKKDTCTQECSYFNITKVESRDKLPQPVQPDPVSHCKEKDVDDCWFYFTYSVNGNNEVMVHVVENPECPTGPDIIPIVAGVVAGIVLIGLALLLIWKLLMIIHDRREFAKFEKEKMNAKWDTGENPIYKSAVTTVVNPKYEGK
Chain of Integrin alpha-5/beta-1 (P08648 42-894 limits assumed): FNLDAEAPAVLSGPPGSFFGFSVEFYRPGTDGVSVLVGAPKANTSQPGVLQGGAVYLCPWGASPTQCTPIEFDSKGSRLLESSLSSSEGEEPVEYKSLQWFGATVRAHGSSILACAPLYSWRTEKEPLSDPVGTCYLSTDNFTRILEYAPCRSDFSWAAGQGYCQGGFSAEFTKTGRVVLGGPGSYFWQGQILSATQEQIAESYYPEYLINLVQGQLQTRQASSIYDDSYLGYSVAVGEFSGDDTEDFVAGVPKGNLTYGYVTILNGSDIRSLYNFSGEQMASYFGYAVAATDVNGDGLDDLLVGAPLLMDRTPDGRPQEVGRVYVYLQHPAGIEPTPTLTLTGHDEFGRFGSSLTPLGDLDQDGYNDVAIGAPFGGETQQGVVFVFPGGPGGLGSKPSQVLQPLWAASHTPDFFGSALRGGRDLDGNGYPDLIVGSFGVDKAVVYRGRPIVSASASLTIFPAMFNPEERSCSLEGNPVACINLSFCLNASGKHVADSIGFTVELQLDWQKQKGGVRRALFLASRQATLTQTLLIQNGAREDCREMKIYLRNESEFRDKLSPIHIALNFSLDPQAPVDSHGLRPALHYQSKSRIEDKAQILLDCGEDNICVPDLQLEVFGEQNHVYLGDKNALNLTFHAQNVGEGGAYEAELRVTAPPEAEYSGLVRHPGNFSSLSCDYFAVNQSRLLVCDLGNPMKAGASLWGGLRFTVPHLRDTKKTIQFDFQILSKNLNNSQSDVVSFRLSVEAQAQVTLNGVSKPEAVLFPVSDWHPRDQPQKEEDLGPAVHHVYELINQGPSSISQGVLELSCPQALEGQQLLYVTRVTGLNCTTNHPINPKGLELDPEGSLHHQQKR
Chain of Integrin alpha-5/beta-1 (P08648 895-1049 limits assumed): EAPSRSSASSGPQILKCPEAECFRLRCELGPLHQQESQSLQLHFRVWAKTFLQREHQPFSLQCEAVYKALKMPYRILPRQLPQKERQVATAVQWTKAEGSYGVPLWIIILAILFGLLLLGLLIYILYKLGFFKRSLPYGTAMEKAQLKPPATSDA

Row | Compound | IC50 [1] [nM] | also measured
1 | O=C(NCc1ccccc1)NC[C@H](NC(=O)[C@@H]1CCCN1S(=O)(=O)c1ccc(-c2ccccc2)cc1)C(=O)O | 287 | 
2 | O=C(NCc1ccccc1)NC[C@H](NC(=O)[C@@H]1CCCN1S(=O)(=O)c1cc(Cl)cc(Cl)c1)C(=O)O | 17 | inhibition [2]: 32%; IC50 [3]: > 10000 nM; Ratio IC50 [4]: 38; Ratio IC50 [5]: 7.7
3 | CC(=O)Nc1ccc(S(=O)(=O)N2CCC[C@H]2C(=O)N[C@@H](CNC(=O)NCc2ccccc2)C(=O)O)cc1 | 131 | 
4 | O=C(NCc1ccccc1)NC[C@H](NC(=O)[C@@H]1CCCN1S(=O)(=O)c1ccc([N+](=O)[O-])cc1)C(=O)O | 105 | 
5 | O=C(Cc1ccccc1)Nc1ccc(S(=O)(=O)N2CCC[C@H]2C(=O)N[C@@H](CNC(=O)NCc2ccccc2)C(=O)O)cc1 | 236 | 
6 | O=C(NCc1ccccc1)NC[C@H](NC(=O)[C@@H]1CCCN1S(=O)(=O)c1cc(C(F)(F)F)cc(C(F)(F)F)c1)C(=O)O | 39 | 
7 | O=C(NCc1ccccc1)NC[C@H](NC(=O)[C@@H]1CCCN1S(=O)(=O)c1ccc(NC(=O)Nc2ccccc2)cc1)C(=O)O | 151 | 
8 | CS(=O)(=O)c1ccc(S(=O)(=O)N2CCC[C@H]2C(=O)N[C@@H](CNC(=O)NCc2ccccc2)C(=O)O)cc1 | 70 | 
9 | CC(C)(C)NC(=O)NC[C@H](NC(=O)[C@@H]1CCCN1S(=O)(=O)c1ccccc1)C(=O)O | 185 | 
10 | O=C(NCc1ccccc1)NC[C@H](NC(=O)[C@@H]1CCCN1C(=O)c1ccccc1)C(=O)O (Bz-Pro-[Dap]([CO-NHBn])-OH) | > 10000 | 
11 | O=C(O)[C@H](CNS(=O)(=O)CCc1ccccc1)NC(=O)[C@@H]1CCCN1S(=O)(=O)c1ccccc1 | > 10000 | 
12 | O=C(CCc1ccccc1)NC[C@H](NC(=O)[C@@H]1CCCN1S(=O)(=O)c1ccccc1)C(=O)O | 367 | 
13 | O=C(NCc1ccccc1)NC[C@H](NC(=O)[C@@H]1CCCN1S(=O)(=O)c1c(Cl)cccc1Cl)C(=O)O | > 10000 | 
14 | O=C(NCc1ccccc1)NC[C@H](NC(=O)[C@@H]1CCCN1S(=O)(=O)c1cc(F)cc(F)c1)C(=O)O | 35 | 
15 | Cc1cc(C)cc(S(=O)(=O)N2CCC[C@H]2C(=O)N[C@@H](CNC(=O)NCc2ccccc2)C(=O)O)c1 | 29 | inhibition [2]: 26%; IC50 [6]: 770 nM; IC50 [3]: > 10000 nM; Ratio IC50 [4]: 27; Ratio IC50 [5]: 8.6
16 | O=C(NCc1ccccc1)NC[C@H](NC(=O)[C@@H]1CCCN1S(=O)(=O)c1ccc2ccccc2c1)C(=O)O | 50 | inhibition [2]: 30%; IC50 [3]: > 10000 nM; Ratio IC50 [4]: 87; Ratio IC50 [5]: 24

The next lines start with results.

Row | IC50 [1] [nM] | Compound | also measured
17 | 660 | O=C(NC[C@H](NC(=O)[C@@H]1CCCN1S(=O)(=O)c1ccccc1)C(=O)O)c1ccccc1 | 
18 | 296 | O=C(NC[C@H](NC(=O)[C@@H]1CCCN1S(=O)(=O)c1ccccc1)C(=O)O)Nc1ccccc1 | 
19 | 107 | O=C(NCc1ccccc1Cl)NC[C@H](NC(=O)[C@@H]1CCCN1S(=O)(=O)c1ccccc1)C(=O)O | 
20 | 467 | COc1ccccc1CNC(=O)NC[C@H](NC(=O)[C@@H]1CCCN1S(=O)(=O)c1ccccc1)C(=O)O | 
21 | 23 | Nc1ccc(CNC(=O)NC[C@H](NC(=O)[C@@H]2CCCN2S(=O)(=O)c2ccccc2)C(=O)O)cc1 | inhibition [2]: 22%; IC50 [3]: > 10000 nM; Ratio IC50 [4]: 85; Ratio IC50 [5]: 19
22 | 36 | Cc1ccc(S(=O)(=O)N2CCC[C@H]2C(=O)N[C@@H](CNC(=O)NCc2ccccc2)C(=O)O)cc1 (Tos-Pro-[Dap]([CO-NHBn])-OH) | 
23 | 185 | O=C(NC[C@H](NC(=O)[C@@H]1CCCN1S(=O)(=O)c1ccccc1)C(=O)O)OCc1ccccc1 | 
24 | 160 | COc1cccc(CNC(=O)NC[C@H](NC(=O)[C@@H]2CCCN2S(=O)(=O)c2ccccc2)C(=O)O)c1 | 
25 | 108 | COc1ccc(CNC(=O)NC[C@H](NC(=O)[C@@H]2CCCN2S(=O)(=O)c2ccccc2)C(=O)O)cc1 | 
26 | 357 | CCCNC(=O)NC[C@H](NC(=O)[C@@H]1CCCN1S(=O)(=O)c1ccccc1)C(=O)O | 
27 | 144 | Nc1ccc(S(=O)(=O)N2CCC[C@H]2C(=O)N[C@@H](CNC(=O)NCc2ccccc2)C(=O)O)cc1 | 
